# Assay results as given in US12404289B2 (Gilead Sciences, Inc., priority 2020, dated 2025).
# Like-named read-outs stand apart in the source and are kept apart here.
# Key:
# Format in all cases: cell-based
# [1] = system: Respiratory syncytial virus (RSV) strain A2; assay: Hep-2 RSV2 384-well assay (EC50-HEP2-384); conditions: human respiratory syncytial virus, HEp-2, 96 h, HEp-2 cells, RSV A2, MOI=4, 4 days, Table 3
# [2] = system: Respiratory syncytial virus (RSV) strain A2; assay: RSV antiviral assay (HEp-2, 96 well); conditions: Table 3
# SARS-CoV-2 = SARS-CoV-2 antiviral assay (A549-hACE2, Nano luciferase); conditions: Table 4
# [3] = read-out: EC50 RSV HEP2 96, HEp-2 cells, RSV A2, MOI=4, 4 days, 96 well
# [4] = Severe acute respiratory syndrome coronavirus 2, 48 h, A549-hACE2 cells, SARS-CoV2-Nano, MOI 0.025, 48 h, read-out: EC50 SARS CoV2
# [5] = human respiratory syncytial virus, HEp-2, 96 h, read-out: EC50 RSV HEP2 96, HEp-2 cells, RSV A2, MOI=4, 4 days, 96 well
# [6] = A549-hACE2 cells, SARS-CoV2-Nano, MOI 0.025, 48 h, read-out: EC50 SARS CoV2
structure (smiles),measurement,setting,value
"COCCOC(=O)[C@H](C)NP(=O)(OC[C@H]1O[C@@](C#N)(c2ccc3c(N)ncnn23)[C@H](O)[C@@H]1O)Oc1ccc(C(C)(C)C)cc1 (stereo partly drawn) [Example 141, 2-methoxyethyl ((((2R,3S,4R,5R)-5-(4-aminopyrrolo[2,1-f][1,2,4]triazin-7-yl)-5-cyano-3,4-dihydroxytetrahydrofuran-2-yl)methoxy)(4-(tert-butyl)phenoxy)phosphoryl)-L-alaninate]",EC50,[1],0.305 µM
"CCC(CC)COC(=O)[C@H](C)NP(=O)(OC[C@H]1O[C@@](C#N)(c2ccc3c(N)ncnn23)[C@H](O)[C@@H]1O)Oc1ccc(OC2CCCCC2)cc1 (stereo partly drawn) [Example 140, 2-ethylbutyl ((((2R,3S,4R,5R)-5-(4-aminopyrrolo[2,1-f][1,2,4]triazin-7-yl)-5-cyano-3,4-dihydroxytetrahydrofuran-2-yl)methoxy)(4-(cyclohexyloxy)phenoxy)phosphoryl)-L-alaninate]",EC50,[1],0.302 µM
"CC(=O)O[C@H]1[C@@H](OC(C)=O)[C@](C#N)(c2ccc3c(N)ncnn23)O[C@@H]1COP(=O)(N[C@@H](C)C(=O)OC1CCC1)Oc1ccc(C2CC2)cc1 (single isomer, unassigned) [Example 53b]",EC50,[2]; [3],0.0212 µM
same,EC50,SARS-CoV-2; [4],0.103 µM
"CCC(=O)O[C@H]1[C@@H](OC(=O)CC)[C@](C#N)(c2ccc3c(N)ncnn23)O[C@@H]1COP(=O)(N[C@@H](C)C(=O)OCC1CCC1)Oc1ccccc1 (stereo partly drawn) [Example 134, (2R,3R,4R,5R)-2-(4-aminopyrrolo[2,1-f][1,2,4]triazin-7-yl)-2-cyano-5-((((((S)-1-(cyclobutylmethoxy)-1-oxopropan-2-yl)amino)(phenoxy)phosphoryl)oxy)methyl)tetrahydrofuran-3,4-diyl Dipropionate]",EC50,[1],0.0938 µM
"C[C@H](NP(=O)(OC[C@H]1O[C@@](C#N)(c2ccc3c(N)ncnn23)[C@H](O)[C@@H]1O)Oc1cccc2ccccc12)C(=O)OC1CCC1 (single isomer, unassigned) [Intermediate P7a-2]",EC50,[2]; [3],0.0651 µM
same,EC50,"SARS-CoV-2; Severe acute respiratory syndrome coronavirus 2, 48 h, read-out: EC50 SARS CoV2, A549-hACE2 cells, SARS-CoV2-Nano, MOI 0.025, 48 h",0.275 µM
"CCC(CC)COC(=O)[C@H](C)NP(=O)(OC[C@H]1O[C@@](C#N)(c2ccc3c(N)ncnn23)[C@H](OC(=O)C(C)C)[C@@H]1OC(=O)C(C)C)Oc1cccc2ccccc12 (stereo partly drawn) [Example 70, [(2R,3R,4R,5R)-5-(4-aminopyrrolo[2,1-f][1,2,4]triazin-7-yl)-5-cyano-2-[[[[(1S)-2-(2-ethylbutoxy)-1-methyl-2-oxo-ethyl]amino]-(1-naphthyloxy)phosphoryl]oxymethyl]-4-(2-methylpropanoyloxy)tetrahydrofuran-3-yl] 2-methylpropanoate]",EC50,[2]; [5],0.049 µM
same,EC50,SARS-CoV-2; [4],0.319 µM
"CC(C)C(=O)O[C@H]1[C@@H](OC(=O)C(C)C)[C@](C#N)(c2ccc3c(N)ncnn23)O[C@@H]1COP(=O)(N[C@@H](C)C(=O)OCC1CCC1)Oc1ccc(C(C)(C)C)cc1 (stereo partly drawn) [Example 60, [(2R,3R,4R,5R)-5-(4-aminopyrrolo[2,1-f][1,2,4]triazin-7-yl)-2-[[(4-tert-butylphenoxy)-[[(1S)-2-(cyclobutylmethoxy)-1-methyl-2-oxo-ethyl]amino]phosphoryl]oxymethyl]-5-cyano-4-(2-methylpropanoyloxy)tetrahydrofuran-3-yl] 2-methylpropanoate]",EC50,[2]; [5],0.064 µM
same,EC50,SARS-CoV-2; [4],0.18 µM
"CCOC(=O)[C@H](C)NP(=O)(OC[C@H]1O[C@@](C#N)(c2ccc3c(N)ncnn23)[C@H](OC(=O)CC)[C@@H]1OC(=O)CC)Oc1ccc(C(C)(C)C)cc1 (stereo partly drawn) [Example 108, (2R,3R,4R,5R)-2-(4-aminopyrrolo[2,1-f][1,2,4]triazin-7-yl)-5-((((4-(tert-butyl)phenoxy)(((S)-1-ethoxy-1-oxopropan-2-yl)amino)phosphoryl)oxy)methyl)-2-cyanotetrahydrofuran-3,4-diyl Dipropionate]",EC50,[2]; [5],0.0277 µM
same,EC50,SARS-CoV-2; [4],0.0829 µM
"C[C@H](NP(=O)(OC[C@H]1O[C@@](C#N)(c2ccc3c(N)ncnn23)[C@H](O)[C@@H]1O)Oc1ccc(C(C)(C)C)cc1)C(=O)OCC1CCC1 (stereo partly drawn) [Example 59, cyclobutylmethyl (2S)-2-[[[(2R,3S,4R,5R)-5-(4-aminopyrrolo[2,1-f][1,2,4]triazin-7-yl)-5-cyano-3,4-dihydroxy-tetrahydrofuran-2-yl]methoxy-(4-tert-butylphenoxy)phosphoryl]amino]propanoate]",EC50,[2]; [5],0.0253 µM
same,EC50,SARS-CoV-2; [4],0.16 µM
"CCC(=O)O[C@H]1[C@@H](OC(=O)CC)[C@](C#N)(c2ccc3c(N)ncnn23)O[C@@H]1COP(=O)(N[C@@H](C)C(=O)OC1CC2(CCC2)C1)Oc1cccc2ccccc12 (single isomer, unassigned) [Example 87a]",EC50,[2]; [3],0.0311 µM
same,EC50,SARS-CoV-2; [6],0.0602 µM
"CC(C)C(=O)O[C@H]1[C@@H](OC(=O)C(C)C)[C@](C#N)(c2ccc3c(N)ncnn23)O[C@@H]1COP(=O)(N[C@@H](C)C(=O)OC1CC2(CCC2)C1)Oc1ccc(C(C)(C)C)cc1 (stereo partly drawn) [Example 66, [(2R,3R,4R,5R)-5-(4-aminopyrrolo[2,1-f][1,2,4]triazin-7-yl)-2-[[(4-tert-butylphenoxy)-[[(1S)-1-methyl-2-oxo-2-spiro[3.3]heptan-2-yloxy-ethyl]amino]phosphoryl]oxymethyl]-5-cyano-4-(2-methylpropanoyloxy)tetrahydrofuran-3-yl] 2-methylpropanoate]",EC50,[2]; [5],0.0619 µM
same,EC50,SARS-CoV-2; [4],0.207 µM
"CCC(=O)O[C@H]1[C@@H](OC(=O)CC)[C@](C#N)(c2ccc3c(N)ncnn23)O[C@@H]1COP(=O)(N[C@@H](C)C(=O)OC1CCC1)Oc1ccc(C2CC2)cc1 (single isomer, unassigned) [Example 54a]",EC50,[2]; [5],0.0131 µM
same,EC50,SARS-CoV-2; [4],0.102 µM
"CCOC(=O)[C@H](C)NP(=O)(OC[C@H]1O[C@@](C#N)(c2ccc3c(N)ncnn23)[C@H](O)[C@@H]1O)Oc1cccc2ccccc12 (stereo partly drawn) [Intermediate S1, ethyl (2S)-2-[[[(2R,3S,4R,5R)-5-(4-aminopyrrolo[2,1-f][1,2,4]triazin-7-yl)-5-cyano-3,4-dihydroxy-tetrahydrofuran-2-yl]methoxy-(1-naphthyloxy)phosphoryl]amino]propanoate]",EC50,[2]; [5],0.0933 µM
same,EC50,SARS-CoV-2; [4],0.714 µM
"CCC(=O)O[C@H]1[C@@H](OC(=O)CC)[C@](C#N)(c2ccc3c(N)ncnn23)O[C@@H]1COP(=O)(N[C@@H](C)C(=O)OC)Oc1ccc(C(C)(C)C)cc1 (stereo partly drawn) [Example 113, (2R,3R,4R,5R)-2-(4-aminopyrrolo[2,1-f][1,2,4]triazin-7-yl)-5-((((4-(tert-butyl)phenoxy)(((S)-1-methoxy-1-oxopropan-2-yl)amino)phosphoryl)oxy)methyl)-2-cyanotetrahydrofuran-3,4-diyl Dipropionate]",EC50,[2]; [5],0.0221 µM
same,EC50,SARS-CoV-2; [4],0.126 µM
"CCC(=O)O[C@H]1[C@@H](OC(=O)CC)[C@](C#N)(c2ccc3c(N)ncnn23)O[C@@H]1COP(=O)(N[C@@H](C)C(=O)OCC(CC)CC)Oc1cccc2ccccc12 (single isomer, unassigned) [Example 79a]",EC50,[2]; [3],0.0612 µM
same,EC50,SARS-CoV-2; [6],0.126 µM
"CCC(=O)O[C@H]1[C@@H](OC(=O)CC)[C@](C#N)(c2ccc3c(N)ncnn23)O[C@@H]1COP(=O)(N[C@@H](C)C(=O)OC1CCC1)Oc1ccc(C2CC2)cc1 (single isomer, unassigned) [Example 54b]",EC50,[2]; [3],0.0209 µM
same,EC50,SARS-CoV-2; [6],0.164 µM
"CCC(C)(C)COC(=O)[C@H](C)NP(=O)(OC[C@H]1O[C@@](C#N)(c2ccc3c(N)ncnn23)[C@H](O)[C@@H]1O)Oc1ccc(C(C)(C)C)cc1 (stereo partly drawn) [Example 121, 2,2-dimethylbutyl ((((2R,3S,4R,5R)-5-(4-aminopyrrolo[2,1-f][1,2,4]triazin-7-yl)-5-cyano-3,4-dihydroxytetrahydrofuran-2-yl)methoxy)(4-(tert-butyl)phenoxy)phosphoryl)-L-alaninate]",EC50,[2]; [5],0.0235 µM
same,EC50,SARS-CoV-2; [4],0.11 µM
"CCC(CC)COC(=O)[C@H](C)NP(=O)(OC[C@H]1O[C@@](C#N)(c2ccc3c(N)ncnn23)[C@H](OC(C)=O)[C@@H]1OC(C)=O)Oc1cccc2ccccc12 (single isomer, unassigned) [Example 78a]",EC50,[2]; [3],0.0652 µM
same,EC50,SARS-CoV-2; [6],0.117 µM
"CCC(CC)COC(=O)[C@H](C)NP(=O)(OC[C@H]1O[C@@](C#N)(c2ccc3c(N)ncnn23)[C@H](O)[C@@H]1O)Oc1cccc2ccccc12 (stereo partly drawn) [Intermediate S2, 2-Ethylbutyl ((((2R,3S,4R,5R)-5-(4-aminopyrrolo[2,1-f][1,2,4]triazin-7-yl)-5-cyano-3,4-dihydroxytetrahydrofuran-2-yl)methoxy)(naphthalen-1-yloxy)phosphoryl)-L-alaninate]",EC50,[2]; [5],0.0848 µM
same,EC50,SARS-CoV-2; [4],0.207 µM
"CCC(=O)O[C@H]1[C@@H](OC(=O)CC)[C@](C#N)(c2ccc3c(N)ncnn23)O[C@@H]1COP(=O)(N[C@@H](C)C(=O)OC1CCC1)Oc1ccccc1 (stereo partly drawn) [Example 107, (2R,3R,4R,5R)-2-(4-aminopyrrolo[2,1-f][1,2,4]triazin-7-yl)-2-cyano-5-((((((S)-1-cyclobutoxy-1-oxopropan-2-yl)amino)(phenoxy)phosphoryl)oxy)methyl)tetrahydrofuran-3,4-diyl Dipropionate]",EC50,[2]; [5],0.0201 µM
same,EC50,SARS-CoV-2; [4],0.18 µM
"CC(C)COC(=O)[C@H](C)NP(=O)(OC[C@H]1O[C@@](C#N)(c2ccc3c(N)ncnn23)[C@H](O)[C@@H]1O)Oc1ccc(C(C)(C)C)cc1 (stereo partly drawn) [Example 118, isobutyl ((((2R,3S,4R,5R)-5-(4-aminopyrrolo[2,1-f][1,2,4]triazin-7-yl)-5-cyano-3,4-dihydroxytetrahydrofuran-2-yl)methoxy)(4-(tert-butyl)phenoxy)phosphoryl)-L-alaninate]",EC50,[2]; [5],0.0235 µM
same,EC50,SARS-CoV-2; [4],0.329 µM
